# Assays:
# [1] = Measurement of maximum absorption wavelength of colorant or colorant mixture in chloroform solution; type: physicochemical; conditions: colorant mixture in chloroform, 1×10^−6 mol/L, 10 mm cell, 23° C.
# Method: The obtained compound F-3 was dissolved in chloroform (concentration: 1×10^−6 mol/L), and the maximum absorption wavelength […] and molar absorption coefficient (c) of the compound F-3 was measured using a cell having an optical path length of 10 mm and using a spectrophotometer UV-1800PC (manufactured by Shimazu Corporation). The maximum absorption wavelength λmax of the compound F-3 was 679 nm, and the molar absorption coefficient (s) was 355000. The obtained compound F-38 was dissolved in chloroform (concentration: 1×10^−6 mol/L), and the maximum absorption wavelength […] and molar absorption coefficient (ε) of the compound F-38 was measured using a cell having an optical path length of 10 mm and using a spectrophotometer UV-1800PC (manufactured by Shimadzu Corporation). The maximum absorption wavelength λmax of the compound F-38 was 590 nm, and the molar absorption coefficient (ε) was 204000. The obtained compound F-51 was dissolved in chloroform (concentration: 1×10^−6 mol/L), and the maximum absorption wavelength λmax and molar absorption coefficient (ε) of the compound F-51 was measured using a cell having an optical path length of 10 mm and using a spectrophotometer UV-1800 (PC (manufactured by Shimadzu Corporation). The maximum absorption wavelength λmax of the compound F-51 was 589 nm, and the molar absorption coefficient (ε) was 244000. The obtained compound F-75 was dissolved in chloroform (concentration: 1×10^−6 mol/L), and the maximum absorption wavelength λmax and molar absorption coefficient (ε) of the compound F-75 was measured using a cell having an optical path length of 10 mm and using a spectrophotometer t-UV-1800PC (manufactured by Shimadzu Corporation). The maximum absorption wavelength λmax of the compound F-75 was 589 nm, and the molar absorption coefficient (ε) was 221000.
# [2] = Evaluation of solubility of colorant mixture; type: physicochemical; conditions: for Evaluation Solubility: added to toluene at 23° C., stirred for 1 hour, visually observed; for solubility in toluene: 23° C.
# Method: Solubility of the colorant mixture shown in the following table in […] was evaluated. Specifically, the colorant mixture was added to toluene at 23° C., stirred for 1 hour, and the presence or absence of dissolution of the colorant was visually observed and the solubility was evaluated based on the following evaluation standard.
Structure (SMILES),λmax (nm) [1],Evaluation Solubility [2],solubility in toluene [2]
CC1=CC(C)=N/C1=C1\C(=O)C(c2[nH]c(C)cc2C)=C1O [Compound A-3],498 nm,D (solubility was less than 0.1% by mass),less than 0.1 % by mass
CCN(CC)c1ccc(C2=C([O-])C(=C3C=CC(=[N+](CC)CC)C=C3)C2=O)cc1 [Compound A-21],634 nm,D (solubility was less than 0.1% by mass),less than 01 % by mass
CCN(CC)c1ccc(C2=C([O-])/C(=C3/C=CC(=[N+](CC)CC)C=C3NC(=O)C(C)(C)CC)C2=O)c(NC(=O)C(C)(C)CC)c1 [Compound A-24],673 nm,C (solubility was 0.1% by mass or more and less than 0.5% by mass),less than 0.5 % by mass
